Test results: ChEMBL document CHEMBL5209572, “Membrane potential based assay for SLC22A4 using HEK-293 SLC22A4 OE cells” (2022)

Target: T1, Solute carrier family 22 member 4 (Homo sapiens, UniProt Q9H015)
T1 sequence (Q9H015 whole entry): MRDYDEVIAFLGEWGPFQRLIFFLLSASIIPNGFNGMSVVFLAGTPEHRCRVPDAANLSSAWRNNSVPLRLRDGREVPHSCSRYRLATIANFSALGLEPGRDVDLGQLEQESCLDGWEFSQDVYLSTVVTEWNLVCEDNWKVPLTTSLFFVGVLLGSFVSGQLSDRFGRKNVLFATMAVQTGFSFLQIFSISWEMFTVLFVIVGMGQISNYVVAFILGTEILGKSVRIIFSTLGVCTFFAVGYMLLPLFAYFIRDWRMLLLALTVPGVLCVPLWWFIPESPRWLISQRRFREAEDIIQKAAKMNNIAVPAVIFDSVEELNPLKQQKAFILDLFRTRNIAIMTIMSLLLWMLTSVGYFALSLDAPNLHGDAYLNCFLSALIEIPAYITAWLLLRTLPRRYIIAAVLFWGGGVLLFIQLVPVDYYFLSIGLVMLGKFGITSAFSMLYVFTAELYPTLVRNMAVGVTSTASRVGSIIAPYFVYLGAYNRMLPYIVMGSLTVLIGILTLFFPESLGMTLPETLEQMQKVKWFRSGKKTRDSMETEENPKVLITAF
Experiment: Substrate uptake by the Organic Cation/Carnitine Transporter 1 (OCTN1, SLC22A4) as assessed by the fluorescent FLIPR membrane potential dye in HEK-293 cells stably transfected with SLC22A4 (PubChem AID: 1794816)
Format: functional, cell-based, HEK293

Question: For C[N+](C)(C)[C@@H](Cc1c[nH]c(=S)[nH]1)C(=O)[O-], which EC50 is on record?
Answer: 40 µM
